Measured values from patent publication US8791102B2, “Acetanilide sphingosine-1-phosphate receptor antagonists” (Exelixis, Inc., priority 2008, dated 2014).

Biological target: T1, human S1P1 receptors (Homo sapiens, UniProt P21453)
T1 construct: host or cells: HEK293
Experiment: S1P1R antagonist assay (fluorescent membrane potential dye, cAMP readout)
Assay type: cell-based
Conditions: HEK293 cells expressing human S1P1 receptors and CNG channel; 500 nM NECA; S1P1R agonist 10 nM; 90 minutes; read-out: EC50 or IC50 value

T1 sequence (P21453 whole entry): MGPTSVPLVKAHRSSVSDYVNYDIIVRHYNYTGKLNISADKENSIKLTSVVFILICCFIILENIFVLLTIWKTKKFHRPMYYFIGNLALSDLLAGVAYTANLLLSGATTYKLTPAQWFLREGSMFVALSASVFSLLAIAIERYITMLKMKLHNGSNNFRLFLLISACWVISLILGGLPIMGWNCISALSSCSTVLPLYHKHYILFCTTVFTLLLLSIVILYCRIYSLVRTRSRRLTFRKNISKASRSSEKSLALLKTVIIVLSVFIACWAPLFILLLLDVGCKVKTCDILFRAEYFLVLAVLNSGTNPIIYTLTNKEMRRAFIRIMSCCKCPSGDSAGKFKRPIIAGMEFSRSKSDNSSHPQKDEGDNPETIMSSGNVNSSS

Structure (SMILES) | IC50
O=C(CCCC(=O)c1ccccc1)NC(COCc1ccccc1)C(=O)Nc1ccc(Oc2ccccc2)cc1 (stereo not shown) [Compound 318, 5-oxo-N-(2-oxo-1-{[(phenylmethyl)oxy]methyl}-2-{[4-(phenyloxy)phenyl]amino}ethyl)-5-phenylpentanamide] | > 1000 nM
CC(=O)c1ccc(OCC(=O)NC(COCc2ccccc2)C(=O)Nc2ccc(Oc3ccccc3)cc2)cc1 (stereo not shown) [Compound 319, N-(2-oxo-1-{[(phenylmethyl)oxy]methyl}-2-{[4-(phenyloxy)phenyl]amino}ethyl)-4-acetylphenoxyacetamide] | > 1000 nM
COc1ccc(CCCC(=O)NC(COCc2ccccc2)C(=O)Nc2ccc(Oc3ccccc3)cc2)cc1OC (stereo not shown) [Compound 320, 4-[3,4-bis(methyloxy)phenyl]-N-(2-oxo-1-{[(phenylmethyl)oxy]methyl}-2-{[4-(phenyloxy)phenyl]amino}ethyl)butanamide] | > 1000 nM
O=C(NC(COCc1ccccc1)C(=O)Nc1ccc(Oc2ccccc2)cc1)c1ccc(-c2cccc(C(F)(F)F)c2)o1 (stereo not shown) [Compound 321, N-(2-oxo-1-{[(phenylmethyl)oxy]methyl}-2-{[4-(phenyloxy)phenyl]amino}ethyl)-5-[3-(trifluoromethyl)phenyl]furan-2-carboxamide] | > 1000 nM
O=C(NC(COCc1ccccc1)C(=O)Nc1ccc(Oc2ccccc2)cc1)C(=O)c1ccccc1 (stereo not shown) [Compound 324, N-(2-oxo-1-{[(phenylmethyl)oxy]methyl}-2-{[4-(phenyloxy)phenyl]amino}ethyl)-2-oxo-2-phenylacetamide] | > 1000 nM
O=C(CCCc1cccs1)NC(COCc1ccccc1)C(=O)Nc1ccc(Oc2ccccc2)cc1 (stereo not shown) [Compound 325, N-(2-oxo-1-{[(phenylmethyl)oxy]methyl}-2-{[4-(phenyloxy)phenyl]amino}ethyl)-4-(2-thienyl)butanamide] | 300 to 1000 nM
O=C(Nc1ccc(Oc2ccccc2)cc1)C(COCc1ccccc1)NC(=O)C1(c2c(F)cccc2Cl)CCCC1 (stereo not shown) [Compound 329, 1-(2-chloro-6-fluorophenyl)-N-(2-oxo-1-{[(phenylmethyl)oxy]methyl}-2-{[4-(phenyloxy)phenyl]amino}ethyl)cyclopentanecarboxamide] | > 1000 nM
O=C(NC(COCc1ccccc1)C(=O)Nc1ccc(Oc2ccccc2)cc1)C1CCOC1 (stereo not shown) [Compound 336, N-(2-oxo-1-{[(phenylmethyl)oxy]methyl}-2-{[4-(phenyloxy)phenyl]amino}ethyl)tetrahydrofuran-3-carboxamide] | ≤ 300 nM
CCOCC(=O)NC(COCc1ccccc1)C(=O)Nc1ccc(Oc2ccccc2)cc1 (stereo not shown) [Compound 338, N-(2-oxo-1-{[(phenylmethyl)oxy]methyl}-2-{[4-(phenyloxy)phenyl]amino}ethyl)-2-ethoxyacetamide] | > 1000 nM
O=C(NC(COCc1ccccc1)C(=O)Nc1ccc(Oc2ccccc2)cc1)c1ccc2[nH]cnc2c1 (stereo not shown) [Compound 342, N-(2-oxo-1-{[(phenylmethyl)oxy]methyl}-2-{[4-(phenyloxy)phenyl]amino}ethyl)-1H-benzimidazole-5-carboxamide] | > 1000 nM
CCOc1ccc(CC(=O)NC(COCc2ccccc2)C(=O)Nc2ccc(Oc3ccccc3)cc2)cc1 (stereo not shown) [Compound 343, N-(2-oxo-1-{[(phenylmethyl)oxy]methyl}-2-{[4-(phenyloxy)phenyl]amino}ethyl)-2-(4-ethoxyphenyl)acetamide] | > 1000 nM
COc1ccc(CCC(=O)NC(COCc2ccccc2)C(=O)Nc2ccc(Oc3ccccc3)cc2)cc1OC (stereo not shown) [Compound 348, N-(2-oxo-1-{[(phenylmethyl)oxy]methyl}-2-{[4-(phenyloxy)phenyl]amino}ethyl)-3-(3,4-dimethoxyphenyl)propanamide] | 300 to 1000 nM
O=C(CCC(=O)c1ccccc1)NC(COCc1ccccc1)C(=O)Nc1ccc(Oc2ccccc2)cc1 (stereo not shown) [Compound 349, 4-oxo-N-(2-oxo-1-{[(phenylmethyl)oxy]methyl}-2-{[4-(phenyloxy)phenyl]amino}ethyl)-4-phenylbutanamide] | 300 to 1000 nM
O=C(NC(COCc1ccccc1)C(=O)Nc1ccc(Oc2ccccc2)cc1)c1cnc2ccccc2c1 (stereo not shown) [Compound 350, N-(2-oxo-1-{[(phenylmethyl)oxy]methyl}-2-{[4-(phenyloxy)phenyl]amino}ethyl)quinoline-3-carboxamide] | > 1000 nM

Continued, values first:

IC50 | Structure (SMILES)
> 1000 nM | O=C(CCC1CCCCC1)NC(COCc1ccccc1)C(=O)Nc1ccc(Oc2ccccc2)cc1 (stereo not shown) [Compound 317, N-(2-oxo-1-{[(phenylmethyl)oxy]methyl}-2-{[4-(phenyloxy)phenyl]amino}ethyl)-3-cyclohexylpropanamide]
> 1000 nM | O=C(CCN1C(=O)c2ccccc2C1=O)NC(COCc1ccccc1)C(=O)Nc1ccc(Oc2ccccc2)cc1 (stereo not shown) [Compound 322, N-(2-oxo-1-{[(phenylmethyl)oxy]methyl}-2-{[4-(phenyloxy)phenyl]amino}ethyl)-3-(1,3-dioxoisoindolin-2-yl)propanamide]
300 to 1000 nM | O=C(CCCC(=O)c1cccs1)NC(COCc1ccccc1)C(=O)Nc1ccc(Oc2ccccc2)cc1 (stereo not shown) [Compound 323, 5-oxo-N-(2-oxo-1-{[(phenylmethyl)oxy]methyl}-2-{[4-(phenyloxy)phenyl]amino}ethyl)-5-(2-thienyl)pentanamide]
≤ 300 nM | O=C(NC(COCc1ccccc1)C(=O)Nc1ccc(Oc2ccccc2)cc1)c1ccc([N+](=O)[O-])o1 (stereo not shown) [Compound 326, 5-nitro-N-(2-oxo-1-{[(phenylmethyl)oxy]methyl}-2-{[4-(phenyloxy)phenyl]amino}ethyl)furan-2-carboxamide]
300 to 1000 nM | CC/C=C/CC(=O)NC(COCc1ccccc1)C(=O)Nc1ccc(Oc2ccccc2)cc1 (stereo not shown) [Compound 327]
> 1000 nM | O=C(Cc1ccc2c(c1)OCO2)NC(COCc1ccccc1)C(=O)Nc1ccc(Oc2ccccc2)cc1 (stereo not shown) [Compound 328, N-(2-oxo-1-{[(phenylmethyl)oxy]methyl}-2-{[4-(phenyloxy)phenyl]amino}ethyl)-1,3-benzodioxol-5-ylacetamide]
> 1000 nM | O=C(NC(COCc1ccccc1)C(=O)Nc1ccc(Oc2ccccc2)cc1)c1ccc(F)cc1C(F)(F)F (stereo not shown) [Compound 330, 4-fluoro-N-(2-oxo-1-{[(phenylmethyl)oxy]methyl}-2-{[4-(phenyloxy)phenyl]amino}ethyl)-2-(trifluoromethyl)benzamide]
> 1000 nM | O=C(CSc1ncccn1)NC(COCc1ccccc1)C(=O)Nc1ccc(Oc2ccccc2)cc1 (stereo not shown) [Compound 331, N-(2-oxo-1-{[(phenylmethyl)oxy]methyl}-2-{[4-(phenyloxy)phenyl]amino}ethyl)-2-(pyrimidin-2-ylthio)acetamide]
300 to 1000 nM | COc1ccc(OC)c(C(=O)NC(COCc2ccccc2)C(=O)Nc2ccc(Oc3ccccc3)cc2)c1 (stereo not shown) [Compound 332, 2,5-bis(methyloxy)-N-(2-oxo-1-{[(phenylmethyl)oxy]methyl}-2-{[4-(phenyloxy)phenyl]amino}ethyl)benzamide]
> 1000 nM | CS(=O)(=O)c1ccc(C(=O)NC(COCc2ccccc2)C(=O)Nc2ccc(Oc3ccccc3)cc2)cc1 (stereo not shown) [Compound 333, 4-(methylsulfonyl)-N-(2-oxo-1-{[(phenylmethyl)oxy]methyl}-2-{[4-(phenyloxy)phenyl]amino}ethyl)benzamide]
> 1000 nM | CS(=O)(=O)c1ccc(C(=O)NC(COCc2ccccc2)C(=O)Nc2ccc(Oc3ccccc3)cc2)c(Cl)c1 (stereo not shown) [Compound 334, 2-chloro-4-(methylsulfonyl)-N-(2-oxo-1-{[(phenylmethyl)oxy]methyl}-2-{[4-(phenyloxy)phenyl]amino}ethyl)benzamide]
> 1000 nM | O=C(CN1C(=O)CSC1=S)NC(COCc1ccccc1)C(=O)Nc1ccc(Oc2ccccc2)cc1 (stereo not shown) [Compound 335, N-(2-oxo-1-{[(phenylmethyl)oxy]methyl}-2-{[4-(phenyloxy)phenyl]amino}ethyl)-2-(4-oxo-2-thioxothiazolidin-3-yl)acetamide]
> 1000 nM | COCCC(=O)NC(COCc1ccccc1)C(=O)Nc1ccc(Oc2ccccc2)cc1 (stereo not shown) [Compound 337, N-(2-oxo-1-{[(phenylmethyl)oxy]methyl}-2-{[4-(phenyloxy)phenyl]amino}ethyl)-3-methoxypropanamide]
> 1000 nM | CN(C)C(=O)CCC(=O)NC(COCc1ccccc1)C(=O)Nc1ccc(Oc2ccccc2)cc1 (stereo not shown) [Compound 339, N,N-dimethyl-N′-(2-oxo-1-{[(phenylmethyl)oxy]methyl}-2-{[4-(phenyloxy)phenyl]amino}ethyl)butanediamide]
300 to 1000 nM | CN(CC(=O)NC(COCc1ccccc1)C(=O)Nc1ccc(Oc2ccccc2)cc1)C(=O)c1ccccc1 (stereo not shown) [Compound 340, N-(2-oxo-1-{[(phenylmethyl)oxy]methyl}-2-{[4-(phenyloxy)phenyl]amino}ethyl)-N-benzoyl-N-methylaminoacetamide]
> 1000 nM | O=C(NC(COCc1ccccc1)C(=O)Nc1ccc(Oc2ccccc2)cc1)c1c[nH]c2ccccc12 (stereo not shown) [Compound 341, N-(2-oxo-1-{[(phenylmethyl)oxy]methyl}-2-{[4-(phenyloxy)phenyl]amino}ethyl)-1H-indole-3-carboxamide]
> 1000 nM | C#CCCC(=O)NC(COCc1ccccc1)C(=O)Nc1ccc(Oc2ccccc2)cc1 (stereo not shown) [Compound 344, N-(2-oxo-1-{[(phenylmethyl)oxy]methyl}-2-{[4-(phenyloxy)phenyl]amino}ethyl)pent-4-ynamide]
> 1000 nM | CCCOc1ccc(C(=O)NC(COCc2ccccc2)C(=O)Nc2ccc(Oc3ccccc3)cc2)cc1 (stereo not shown) [Compound 345, N-(2-oxo-1-{[(phenylmethyl)oxy]methyl}-2-{[4-(phenyloxy)phenyl]amino}ethyl)-4-(propyloxy)benzamide]
300 to 1000 nM | CCCCC(C)C(=O)NC(COCc1ccccc1)C(=O)Nc1ccc(Oc2ccccc2)cc1 (stereo not shown) [Compound 346, 2-methyl-N-(2-oxo-1-{[(phenylmethyl)oxy]methyl}-2-{[4-(phenyloxy)phenyl]amino}ethyl)hexanamide]
> 1000 nM | CC(=O)CCC(=O)NC(COCc1ccccc1)C(=O)Nc1ccc(Oc2ccccc2)cc1 (stereo not shown) [Compound 347, 4-oxo-N-(2-oxo-1-{[(phenylmethyl)oxy]methyl}-2-{[4-(phenyloxy)phenyl]amino}ethyl)pentanamide]
